Experimental data as given in patent US20030064385A1, “Genes expressed in breast cancer as prognostic and therapeutic targets” (priority 2001, published 2003).

System: primary invasive breast cancer
Experiment: Clinical tumor response (WHO criteria) in randomized Phase III neoadjuvant trial of letrozole versus tamoxifen; patients with profiled biopsies
Type: in vivo, human
Details: clinical outcome of patients with profiled pre-treatment biopsies; postmenopausal women; response by palpation at 4 months
From the text: Definitions of Objective Response Used in the Letrozole (FEMARA™) vs. Tamoxifen Comparison Study
1. Complete Response (CR): The disappearance of all known disease, determined by 2 observations not less than 4 weeks apart.
2. Partial Response (PR): A 50% or more decrease in total tumor size of the lesions which have been measured to determine the effect of therapy by 2 observations not less than 4 weeks apart. In addition there can be no appearance of new lesions or progression of any lesion.
4. Progressive Disease (PD): A 25% or more increase in the size of one or more measurable lesions, or the appearance of new lesions.
Clinical Response Assessment
The primary efficacy variable was tumor response, assessed by clinical examination using World Health Organization (WHO) criteria (see, WHO Handbook for Reporting Results of Cancer Treatment). It was defined as the percentage of patients in each treatment group with a CR or PR as determined clinically in the breast by palpation at 4 months. Possible responses were CR, PR, NC, PD or not assessable/not evaluable (NA/NE). Palpable ipsilateral axillary lymph nodal involvement downgraded a clinical CR in tumor. Other factors were also considered such the percentage of patients who underwent breast-conserving surgery (quadrantectomy/lumpectomy) instead of mastectomy. Patients who became inoperable, or who remained inoperable at 4 months, were counted as treatment failures.
Twenty-one RNA samples were extracted from 14-gauge needle core biopsies collected before initiation of neoadjuvant endocrine therapy from patients enrolled in a randomized Phase III trial of letrozole (FEMARA™, Novartis Pharma, Basal Switzerland) versus tamoxifen for postmenopausal women with primary invasive breast cancer ineligible for breast conserving surgery. RNA was extracted from an additional 30 primary breast adenocarcinomas collected in Sweden, one additional ESR1+breast tumor surgical biopsy, two HUVEC samples, two samples from glioblastoma cell line U373-MG and one MCF7 sample using Trizol (Life Technologies, Gaithersburg, Md.). The clinical samples were collected after informed consent had been obtained according to protocols approved by local ethics committees. RNA was purchased for two samples, an infiltrating Stage III duct carcinoma (Ambion, Austin, Tex.) and a pool of two normal breast tissues (Clontech, Palo Alto, Calif.). The total number of samples prepared was 59 including 53 breast cancer biopsies and one pooled normal breast sample. Total RNA was purified using QIAGEN RNEASY™ columns (Qiagen, Valencia, Calif.), processed and hybridized to the HUGENE™ FL 6800 Array (Affymetrix, Santa Clara, Calif.), as described by Lockhart et al., Nat. Biotechnol., Vol. 14, pp. 1675-1680 (1996).
In another aspect of the invention 136 breast biopsies from 53 patients were obtained. RNA was extracted from 116 biopsies. Expression profiles were generated for 43 biopsies from 35 patients. Predictive markers of endocrine therapy responsiveness in breast tumors were identified. The breakdown of the profiled biopsies from the pre-letrozole (FEMARA™) treatments and the patient's clinical outcome was as follows: four patients with CR, nine patients with PR, four patients with NC and four patients with PD.
For the group treated with tamoxifen there were no patients in the CR category, 10 patients with PR, seven patients with NC and four patients with PD.

Row | Compound | patients with CR (complete response) | patients with NC (no change) | patients with PD (progressive disease) | patients with PR (partial response)
1 | N#Cc1ccc(C(c2ccc(C#N)cc2)n2cncn2)cc1 [letrozole] | four | four | four | nine
2 | CC/C(=C(\c1ccccc1)c1ccc(OCCN(C)C)cc1)c1ccccc1 [tamoxifen] | no patients | seven | four | 10 patients
